How the values were obtained:
[1] = tested on: Kras G12C mutant NCI-H358 cells; assay: Cell proliferation inhibition experiment, 3D cell model, CellTiter-Glo (H358); format: cell-based, human; settings: NCI-H358, 2% FBS RPMI-1640, 384-well sphere plate, cultured 5 days with compound
Description: (§1) NCI-H358 was a human non-small cell lung cancer cell line with Kras G12C mutation, cultured in 10% FBS RPMI-1640 medium; A549 was a human lung adenocarcinoma cell line with Kras G12S mutation, cultured in 10% FBS F-12K medium. The cells in the logarithmic growth phase was taken, digested with trypsin EDTA, collected and counted, and H358 was adjusted to 1.8E4 cells/ml using 2% FBS RPMI-1640 medium, and A549 was adjusted to 8.9E3 cells/ml using 2% FBS F-12K medium; 800 (45 μl) H358 or 400 (45 μl) A549 cells were seeded in a 384-well sphere plate respectively, cultured overnight to establish a 3D cell model. DMSO was used to prepare 1000× compound 3.16-fold gradient concentration stock solution, and 2% FBS medium was used to dilute 100-fold to 10× compound stock solution. On the second day after cell seeding, 5 μl 10× compound stock solution was added to each cell culture well, the final concentration was 1×, and DMSO content was 0.1%. DMSO was used as the experimental control (control) and 2% FBS medium as the blank control (blank). After the compound and cells were added and cultured for 5 days, 25 μl CellTiter-Glo working solution was added to each well, mixed at 400 rpm and incubated for 30 minutes. After standing 30 minutes at room temperature, 40 μl of the mixture was transfered to a 384-well plate with a non-transparent white bottom, the luminescence chemiluminescence value was read, and the cells proliferation inhibition rate IR (%)=(RLU control-RLU compound)/(RLU control-RLU blank)×100% was calculated, Prism 6 four-parameter method was used to fit the compound's gradient dilution concentration and the corresponding cell proliferation inhibition rate, and the IC50 value was calculated.

[2] = tested on: A549 cells (Kras G12S mutation); assay: Cell proliferation inhibition experiment, 3D cell model, CellTiter-Glo (A549); format: cell-based, human; settings: A549, 2% FBS F-12K, 384-well sphere plate, cultured 5 days with compound
Description: as §1

Row | IC50 ([1]; Homo sapiens, NCI-H358, 120 h) [nM] | IC50 ([2]; Homo sapiens, A549, 120 h) [nM] | SMILES | also measured
1 | 38 | > 30000 | C=CC(=O)N1CCN(c2nc(N3CCC(N(C)C)CC3)nc3c(OC4CC4)c(-c4c(C)ccc5[nH]ncc45)c(Cl)cc23)CC1 [Compound Z34, 1-(4-(6-chloro-8-cyclopropoxy-2-(4-(dimethylamino)piperidin-1-yl)-7-(5-methyl-1H-indazol-4-yl)quinazolin-4-yl)piperazin-1-yl)prop-2-en-1-one] | –
2 | – | – | C=CC(=O)N1CCN(c2nc(OC3CCN(C)CC3)nc3c(OC4CCC4)c(-c4c(C)ccc5[nH]ncc45)c(Cl)cc23)CC1 [Compound Z3, 1-(4-(6-chloro-8-cyclobutoxy-7-(5-methyl-1H-indazol-4-yl)-2-((1-methylpiperidin-4-yl)oxy)quinazolin-4-yl)piperazin-1-yl)prop-2-en-1-one] | IC50 ([1]; Homo sapiens, 120 h): 60 nM; IC50 ([2]; Homo sapiens, 120 h): > 1000 nM
3 | 126 | > 1000 | C=CC(=O)N1CCN(c2nc(OC3CCN(C)CC3)nc3c(OC4CCOCC4)c(-c4c(C)ccc5[nH]ncc45)c(Cl)cc23)CC1 [Compound Z2, 1-(4-(6-chloro-7-(5-methyl-1H-indazol-4-yl)-2-((1-methylpiperidin-4-yl)oxy)-8-((tetrahydro-2H-pyran-4-yl)oxy)quinazolin-4-yl)piperazin-1-yl)prop-2-en-1-one] | –
4 | 16 | > 30000 | C=CC(=O)N1CCN(c2nc(OCCN(C)C)nc3c(OC4CC4)c(-c4c(C)ccc5[nH]ncc45)c(Cl)cc23)CC1 [Compound Z36] | –
5 | – | – | C=CC(=O)N1CCN(c2nc(OC[C@@H]3CCCN3C)nc3c(OC4CC4)c(-c4c(C)ccc5[nH]ncc45)c(Cl)cc23)C[C@@H]1CC#N [Compound Z46] | IC50 [1]: 2 nM; IC50 [2]: > 30000 nM
6 | 20 | > 1000 | C=CC(=O)N1CCN(c2nc(OC3CCN(C)C3)nc3c(OC4CC4)c(-c4c(C)ccc5[nH]ncc45)c(Cl)cc23)CC1 (centres unmarked) [Compound Z32] | –
7 | 43 | > 5000 | C=CC(=O)N1CCN(c2nc(N3CCC(N(C)C)C3)nc3c(OC4CC4)c(-c4c(C)ccc5[nH]ncc45)c(Cl)cc23)CC1 (centres unmarked) [Compound Z35, 1-(4-(6-chloro-8-cyclopropoxy-2-(3-(dimethylamino)pyrrolidin-1-yl)-7-(5-methyl-1H-indazol-4-yl)quinazolin-4-yl)piperazin-1-yl)prop-2-en-1-one] | –
8 | – | – | C=CC(=O)N1CCN(c2nc(OC3CCN(C)CC3)nc3c(OC4CC4)c(-c4c(C)ccc5[nH]ncc45)c(Cl)cc23)CC1 (single isomer, unassigned) [Compound Z12B] | IC50 [1]: 390 nM; IC50 [2]: > 5000 nM
9 | 257 | > 10000 | C=CC(=O)N1CCN(c2nc(OC[C@@H]3CCCN3C)nc3c(OC4CCOC4)c(-c4c(C)ccc5[nH]ncc45)c(Cl)cc23)CC1 (stereo partly drawn) [Compound Z10A, 1-(4-(6-chloro-7-(5-methyl-1H-indazol-4-yl)-2-(((S)-1-methylpyrrolidin-2-yl)methoxy)-8-((tetrahydrofuran-3-yl)oxy)quinazolin-4-yl)piperazin-1-yl)prop-2-en-1-one] | –
10 | 336 | > 1000 | C=CC(=O)N1CCN(c2nc(OC[C@@H]3CCCN3C)nc3c(OC4CC4)c(-c4c(O)cccc4F)c(Cl)cc23)CC1 [Compound Z13] | –
11 | 311 | > 10000 | C=CC(=O)N1CCN(c2nc(OC[C@@H]3CCCN3C)nc3c(OC4CC(F)(F)C4)c(-c4c(C)ccc5[nH]ncc45)c(Cl)cc23)[C@@H](C)C1 [Compound Z5] | –
12 | – | – | C=CC(=O)N1CCN(c2nc(O[C@@H]3CCN(C)C3)nc3c(OC4CC4)c(-c4c(C)ccc5[nH]ncc45)c(Cl)cc23)CC1 (single isomer, unassigned) [Compound Z39B] | IC50 [1]: 12 nM; IC50 [2]: > 30000 nM
13 | 11 | > 1000 | C=CC(=O)N1CCN(c2nc(OC[C@@H]3CCCN3C)nc3c(OC4CC4)c(-c4c(C)ccc5[nH]ncc45)c(Cl)cc23)[C@@H](C)C1 [Compound Z28, 1-((3S)-4-(6-chloro-8-cyclopropoxy-7-(5-methyl-1H-indazol-4-yl)-2-(((S)-1-methylpyrrolidin-2-yl)methoxy)quinazolin-4-yl)-3-methylpiperazin-1-yl)prop-2-en-1-one] | –
14 | 10 | > 10000 | C=CC(=O)N1CCN(c2nc(OC[C@@H]3CCCN3C)nc3c(OC4CC4)c(-c4c(C)ccc5[nH]ncc45)c(OC)cc23)[C@@H](C)C1 (single isomer, unassigned) [Compound Z48B] | –
15 | 39 | > 5000 | C=CC(=O)N1CCN(c2nc(N3CC(N(C)C)C3)nc3c(OC4CC4)c(-c4c(C)ccc5[nH]ncc45)c(Cl)cc23)CC1 [Compound Z33, 1-(4-(6-chloro-8-cyclopropoxy-2-(3-(dimethylamino)azetidine-1-yl)-7-(5-methyl-1H-indazol-4-yl)quinazolin-4-yl)piperazin-1-yl)prop-2-en-1-one] | –
16 | – | – | C=CC(=O)N1CCN(c2nc(OC3CCN(C)CC3)nc3c(OC4CC4)c(-c4c(C)ccc5[nH]ncc45)c(Cl)cc23)CC1 (single isomer, unassigned) [Compound Z12A] | IC50 [1]: 9 nM; IC50 [2]: > 1000 nM
17 | 51 | > 10000 | C=CC(=O)N1CCN(c2nc(OC[C@@H]3CCCN3C)nc3c(OC4CC4)c(-c4c(C)ccc5[nH]ncc45)c(Cl)cc23)C[C@@H]1C [Compound Z29, 1-((2S)-4-(6-chloro-8-cyclopropoxy-7-(5-methyl-1H-indazol-4-yl)-2-((((S)-1-methylpyrrolidin-2-yl))methoxy)quinazolin-4-yl)-2-methylpiperazin-1-yl)prop-2-en-1-one] | –
18 | – | > 1000 | C=CC(=O)N1CCN(c2nc(OC[C@@H]3CCCN3C)nc3c(OC4CC4)c(-c4c(C)ccc5[nH]ncc45)c(Cl)cc23)CC1 [Compound Z7, 1-(4-(6-chloro-8-cyclopropoxy-7-(5-methyl-1H-indazol-4-yl)-2-(((S)-1-methylpyrrolidin-2-yl)methoxy)quinazolinpyridin-4-yl)piperazin-1-yl)prop-2-en-1-one] | IC50 [1]: 16 nM
19 | 34 | > 10000 | C=CC(=O)N1CCN(c2nc(OC[C@@H]3CCCN3C)nc3c(OC4CC4)c(-c4c(C)ccc5[nH]ncc45)c(Cl)cc23)CC1CC#N (some centres unmarked) [Compound Z31] | –

Row | SMILES | IC50 ([1]; Homo sapiens, NCI-H358, 120 h) [nM] | IC50 ([2]; Homo sapiens, A549, 120 h) [nM] | also measured
20 | C=CC(=O)N1CCN(c2nc(OC3CCN(C)CC3)nc3c(OC4CC(F)(F)C4)c(-c4c(C)ccc5[nH]ncc45)c(Cl)cc23)CC1 [Compound Z1, 1-(4-(6-chloro-8-(3,3-difluorocyclobutoxy)-7-(5-methyl-1H-indazol-4-yl)-2-((1-methylpiperidin-4-yl)oxy)quinazolin-4-yl)piperazin-1-yl)prop-2-en-1-one] | 108 | > 1000 | –
21 | C=CC(=O)N1[C@@H]2CC[C@H]1CN(c1nc(OC[C@@H]3CCCN3C)nc3c(OC4CC4)c(-c4c(C)ccc5[nH]ncc45)c(Cl)cc13)C2 [Compound Z42, 1-((1R, 5S)-3-(6-chloro-8-cyclopropoxy-7-(5-methyl-1H-indazol-4-yl)-2-(((S)-1-methylpyrrolidin-2-yl)methoxy)quinazolin-4-yl)-3,8-diazabicyclo[3.2.1]octane-8-yl)prop-2-en-1-one] | 331 | > 30000 | –
22 | C=CC(=O)N1CCN(c2nc(OC[C@@H]3CCCN3C)nc3c(OC4CC(F)(F)C4)c(-c4c(C)ccc5[nH]ncc45)c(Cl)cc23)CC1 [Compound Z4, 1-(4-(6-chloro-8-(3,3-difluorocyclobutoxy)-7-(5-methyl-1H-indazol-4-yl)-2-(((S)-1-methylpyrrolidin-2-yl)methoxy)quinazolin-4-yl)piperazin-1-yl)prop-2-en-1-one] | 136 | > 1000 | –

Reference: patent US20220363681A1, “OXO SIX-MEMBERED CYCLOPYRIMIDINE COMPOUND, PREPARATION METHOD AND MEDICAL USE THEREOF” (GenFleet Therapeutics (Shanghai) Inc., priority 2019, published 2022)
